Assay results published in US20020026053A1, “Novel 3-(substituted) -2- indolinones compounds and use thereof as inhibitors of protein kinase activity” (priority 1997, published 2002).

Assays:
PDGF-R = PDGF-R Assay (cellular ELISA, U1242 cells); type: cell-based; set-up: concentration or dose not given beside the values
Method in brief: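 U1242 cells seeded in 0.5% serum, serum-starved, then exposed to compound for 2 hr at 37°C before 5–10 min ligand stimulation and lysis in HNTG. Lysate captured on receptor-antibody-coated plates; phosphotyrosine detected with polyclonal anti-pTyr, goat anti-rabbit IgG and ABTS/H2O2, A410 (ref 630 nm), versus untreated cells.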

EGFR = target: T1, EGFR (Homo sapiens, UniProt P00533); assay: Biochemical EGFR Assay; set-up: concentration or dose not given beside the values
T1 construct: endogenous in cells; host or cells: A431 cells (lysate, captured with SUMO1 anti-EGFR antibody)
T1 sequence (P00533 25-1210): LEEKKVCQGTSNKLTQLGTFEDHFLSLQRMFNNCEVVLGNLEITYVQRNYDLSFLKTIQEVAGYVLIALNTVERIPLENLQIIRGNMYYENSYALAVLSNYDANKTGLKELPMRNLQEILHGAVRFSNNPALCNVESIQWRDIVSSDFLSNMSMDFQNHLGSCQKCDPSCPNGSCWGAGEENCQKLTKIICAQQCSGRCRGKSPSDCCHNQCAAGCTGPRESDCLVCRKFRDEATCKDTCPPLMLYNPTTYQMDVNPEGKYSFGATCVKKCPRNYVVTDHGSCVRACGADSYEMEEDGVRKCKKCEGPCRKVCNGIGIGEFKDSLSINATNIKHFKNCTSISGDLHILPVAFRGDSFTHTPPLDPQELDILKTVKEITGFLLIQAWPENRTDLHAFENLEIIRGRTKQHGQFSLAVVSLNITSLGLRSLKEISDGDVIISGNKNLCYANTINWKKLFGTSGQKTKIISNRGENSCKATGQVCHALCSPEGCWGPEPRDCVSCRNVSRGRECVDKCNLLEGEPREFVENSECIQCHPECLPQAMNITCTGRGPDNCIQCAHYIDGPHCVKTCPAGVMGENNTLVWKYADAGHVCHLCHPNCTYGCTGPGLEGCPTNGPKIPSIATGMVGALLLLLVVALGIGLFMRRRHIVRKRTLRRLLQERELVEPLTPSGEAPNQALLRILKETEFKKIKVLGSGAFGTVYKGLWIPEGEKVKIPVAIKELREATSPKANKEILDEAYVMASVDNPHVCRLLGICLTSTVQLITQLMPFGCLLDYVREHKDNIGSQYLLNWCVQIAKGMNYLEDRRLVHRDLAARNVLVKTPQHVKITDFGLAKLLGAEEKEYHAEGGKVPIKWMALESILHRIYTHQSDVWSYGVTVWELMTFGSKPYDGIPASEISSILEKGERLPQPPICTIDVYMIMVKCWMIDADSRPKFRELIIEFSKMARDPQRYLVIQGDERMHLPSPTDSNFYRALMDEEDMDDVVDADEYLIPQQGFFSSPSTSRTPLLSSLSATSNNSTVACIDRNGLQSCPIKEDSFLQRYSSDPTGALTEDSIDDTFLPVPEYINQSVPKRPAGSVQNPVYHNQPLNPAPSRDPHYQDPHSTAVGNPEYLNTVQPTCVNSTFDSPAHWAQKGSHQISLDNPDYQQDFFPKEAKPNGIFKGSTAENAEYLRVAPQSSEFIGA
Method in brief: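 EGFR from A431 lysate was captured on anti-EGFR-coated wells and preincubated 30 min with compound (diluted 1:10 in TBS) at room temperature. After ATP/MnCl2 phosphorylation for 5 min, the reaction was stopped with EDTA. Phosphotyrosine was detected by ELISA (anti-phosphotyrosine, peroxidase conjugate, ABTS) at 410 nm.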

SMILES	PDGF Kinase % Inhibition (P.119) (PDGF-R)	Biochem EGFR % Inhibition (P.167) (EGFR)
N#Cc1ccccc1C=C1C(=O)Nc2ccc(S(=O)(=O)Nc3ccc(C(F)(F)F)cc3)cc21 [10735/E07]	57.1%	27.4%
O=C1Nc2ccc(S(=O)(=O)Nc3ccc(C(F)(F)F)cc3)cc2C1=Cc1c(F)cccc1F [10735/E08]	25.4%	10.2%
O=C1Nc2ccc(S(=O)(=O)Nc3ccc(C(F)(F)F)cc3)cc2C1=Cc1cccc2ccccc12 [10735/E09]	37.1%	−3.9%
O=C1Nc2ccc(S(=O)(=O)Nc3ccc(C(F)(F)F)cc3)cc2C1=Cc1ccc(Cl)cc1Cl [10735/E10]	27.1%	19.1%
O=C1Nc2ccc(S(=O)(=O)Nc3ccc(C(F)(F)F)cc3)cc2C1=Cc1ccc(-c2ccccc2)cc1 [10735/E11]	11.9%	10.1%
Cc1ccccc1C=C1C(=O)Nc2ccc(S(=O)(=O)N3CCOCC3)cc21 [10735/F02]	6.0%	19.8%
O=C1Nc2ccc(S(=O)(=O)N3CCOCC3)cc2C1=Cc1ccc(F)c(F)c1 [10735/F03]	7.8%	19.1%
O=C1Nc2ccc(S(=O)(=O)N3CCOCC3)cc2C1=Cc1cc(F)cc(F)c1 [10735/F04]	40.5%	10.6%
O=C1Nc2ccc(S(=O)(=O)N3CCOCC3)cc2C1=Cc1cccc(C(F)(F)F)c1 [10735/F05]	37.1%	5.5%
O=C1Nc2ccc(S(=O)(=O)N3CCOCC3)cc2C1=Cc1cc(C(F)(F)F)cc(C(F)(F)F)c1 [10735/F06]	20.9%	13.0%
N#Cc1ccccc1C=C1C(=O)Nc2ccc(S(=O)(=O)N3CCOCC3)cc21 [10735/F07]	19.2%	28.9%
O=C1Nc2ccc(S(=O)(=O)N3CCOCC3)cc2C1=Cc1c(F)cccc1F [10735/F08]	13.3%	9.4%
O=C1Nc2ccc(S(=O)(=O)N3CCOCC3)cc2C1=Cc1cccc2ccccc12 [10735/F09]	19.8%	0.0%
O=C1Nc2ccc(S(=O)(=O)N3CCOCC3)cc2C1=Cc1ccc(Cl)cc1Cl [10735/F10]	13.3%	15.7%
O=C1Nc2ccc(S(=O)(=O)N3CCOCC3)cc2C1=Cc1ccc(-c2ccccc2)cc1 [10735/F11]	4.0%	14.8%
Cc1ccccc1C=C1C(=O)Nc2ccc(CCCl)cc21 [10735/G02]	7.1%	23.7%
O=C1Nc2ccc(CCCl)cc2C1=Cc1ccc(F)c(F)c1 [10735/G03]	6.4%	30.3%
O=C1Nc2ccc(CCCl)cc2C1=Cc1cc(F)cc(F)c1 [10735/G04]	11.6%	22.8%
O=C1Nc2ccc(CCCl)cc2C1=Cc1cccc(C(F)(F)F)c1 [10735/G05]	13.6%	16.7%
O=C1Nc2ccc(CCCl)cc2C1=Cc1cc(C(F)(F)F)cc(C(F)(F)F)c1 [10735/G06]	12.9%	2.1%
